Measured values as given in US8884061B2, “Compositions and methods of use of electron transport system inhibitors” (priority 2006, dated 2014).

Columns and labels:
Assay in all cases: MIC, other bacteria (Table 3)
P. aeruginosa ATCC 27853 = format: cell-based; conditions: inoculum size 10^6 CFU/ml
MRSE 2442-05030 = format: cell-based, S. epidermidis; conditions: inoculum size 10^6 CFU/ml
MRSE 2442-05118 = format: cell-based, S. epidermidis; conditions: inoculum size 10^6 CFU/ml
MRSA 2441-05129 = format: cell-based, S. aureus; conditions: inoculum size 10^6 CFU/ml
VRSA 2441-T0044 = format: cell-based, S. aureus; conditions: VRSA 2441-T0044, low level VCM-resistant; inoculum size 10^6 CFU/ml
MRSE 2442-05047 = format: cell-based, S. epidermidis; conditions: inoculum size 10^6 CFU/ml
[1] = tested on: E. faecalis NCTC 12201 (VRE); format: cell-based; conditions: high level VCM-resistant, Van A, inoculum size 10^6 CFU/ml
[2] = tested on: E. faecalis ATCC 51299 (VRE); format: cell-based; conditions: low level VCM-resistant, Van B, inoculum size 10^6 CFU/ml
MRSE 2442-05110 = format: cell-based, S. epidermidis; conditions: inoculum size 10^6 CFU/ml
S. aureus ATCC 29213 = format: cell-based; conditions: inoculum size 10^6 CFU/ml
[3] = tested on: S. epidermidis ATCC 12228; format: cell-based; conditions: inoculum size 10^6 CFU/ml
MRSA 2441-05254 = format: cell-based, S. aureus; conditions: inoculum size 10^6 CFU/ml
VRSA 2441-T0041 = format: cell-based, S. aureus; conditions: VRSA 2441-T0041, low level VCM-resistant; inoculum size 10^6 CFU/ml
P. mirabilis ATCC 4630 = format: cell-based; conditions: inoculum size 10^6 CFU/ml
E. coli ATCC 25922 = format: cell-based; conditions: inoculum size 10^6 CFU/ml
MRSA 2441-05104 = format: cell-based, S. aureus; conditions: inoculum size 10^6 CFU/ml
MRSA 2441-05262 = format: cell-based, S. aureus; conditions: inoculum size 10^6 CFU/ml
[4] = tested on: E. faecium NCTC 12203 (VRE); format: cell-based; conditions: high level VCM-resistant, Van A, inoculum size 10^6 CFU/ml
MRSE 2442-05053 = format: cell-based, S. epidermidis; conditions: inoculum size 10^6 CFU/ml
MRSE 2442-05060 = format: cell-based, S. epidermidis; conditions: inoculum size 10^6 CFU/ml
S. marsascens ATCC 14756 = format: cell-based; conditions: inoculum size 10^6 CFU/ml
MRSA 2441-05112 = format: cell-based, S. aureus; conditions: inoculum size 10^6 CFU/ml
[5] = tested on: S. aureus ATCC 43300 (MRSA); format: cell-based; conditions: inoculum size 10^6 CFU/ml
K. pneumoniae ATCC 27736 = format: cell-based; conditions: inoculum size 10^6 CFU/ml
E. faecalis ATCC 29212 = format: cell-based; conditions: inoculum size 10^6 CFU/ml
E. faecium ATCC 49224 = format: cell-based; conditions: E. faecium ATCC 49224, GM-resistant; inoculum size 10^6 CFU/ml
MRSA 2441-05223 = format: cell-based, S. aureus; conditions: inoculum size 10^6 CFU/ml

Measured: MIC

CN[C@H](CC(C)C)C(=O)N[C@H]1C(=O)N[C@@H](CC(N)=O)C(=O)N[C@H]2C(=O)N[C@H]3C(=O)N[C@H](C(=O)N[C@H](C(=O)O)c4cc(O)cc(O)c4-c4cc3ccc4O)[C@H](O)c3ccc(c(Cl)c3)Oc3cc2cc(c3O[C@@H]2O[C@H](CO)[C@@H](O)[C@H](O)[C@H]2O[C@H]2C[C@](C)(N)[C@H](O)[C@H](C)O2)Oc2ccc(cc2Cl)[C@H]1O [VCM, reference compound]
1.25 µg/mL: [2]
1.56 µg/mL: MRSE 2442-05118 | MRSE 2442-05047 | MRSE 2442-05110 | [3] | MRSA 2441-05254 | MRSE 2442-05053 | MRSE 2442-05060
3.13 µg/mL: MRSE 2442-05030 | VRSA 2441-T0041 | E. faecalis ATCC 29212 | E. faecium ATCC 49224
6.25 µg/mL: VRSA 2441-T0044
0.78 µg/mL: MRSA 2441-05129 | S. aureus ATCC 29213 | MRSA 2441-05104 | MRSA 2441-05262 | MRSA 2441-05112 | [5] | MRSA 2441-05223
>100 µg/mL: all other assays above
